Data reported in US11447480B2, “Compound exhibiting enteropeptidase inhibitory activity” (LG CHEM, LTD., priority 2018, dated 2022).

Target: Recombinant Human Enteropeptidase (Homo sapiens (Human), UniProt P98073)
Test: Enteropeptidase Inhibition Assay
Format: biochemical
Settings: substrate Acetyl-Asp-Asp-Asp-Asp-Lys-AFC 30 μM, 30° C., 1 hour; Ki calculated from IC50 using Cheng-Prusoff equation
Description: Enteropeptidase Inhibition Assay
The inhibitory activity of the enteropeptidase inhibitor synthesized using the purified Recombinant Human Enteropeptidase and the substrate Acetyl-Asp-Asp-Asp-Asp-Lys-AFC (BioVision) was measured. 7.2 ng/mL of Enteropeptidase diluted with a buffer (20 mM Tris, 50 mM NaCl, pH 7.5) in a 96 well plate (Costar), 30 μM of Acetyl-Asp-Asp-Asp-Asp-Lys-AFC, several concentrations of Enteropeptidase inhibitors (1% DMSO concentration) were dispensed such that a final volume was 100 μL, and then the enzyme reaction was carried out at 30° C. for 1 hour. At this time, 1% DMSO, a substrate and Enteropeptidase instead of the compound were dispensed onto positive control wells, and 1% DMSO and a substrate were dispensed onto negative control wells. The enzyme reaction was […] using an excitation wavelength of 380 nm and an emission wavelength of 500 nm in a fluorescence spectrometer, and then the rate of increase in fluorescence (milli-units per min) between 20 and 60 minutes was measured.
The fluorescence measurement values reduced by the inhibitor diluted at each concentration were converted into relative values % of the positive control group (100% reactivity) and the negative control group (0% reactivity), and used to calculate IC50 values. IC50 is the concentration of the inhibitor that inhibits the enzyme activity by 50%, and was calculated using PRISM (GraphPad). Ki values were calculated from the IC50 values using Cheng-Prusoff equation.

Chain of Recombinant Human Enteropeptidase (P98073 whole entry): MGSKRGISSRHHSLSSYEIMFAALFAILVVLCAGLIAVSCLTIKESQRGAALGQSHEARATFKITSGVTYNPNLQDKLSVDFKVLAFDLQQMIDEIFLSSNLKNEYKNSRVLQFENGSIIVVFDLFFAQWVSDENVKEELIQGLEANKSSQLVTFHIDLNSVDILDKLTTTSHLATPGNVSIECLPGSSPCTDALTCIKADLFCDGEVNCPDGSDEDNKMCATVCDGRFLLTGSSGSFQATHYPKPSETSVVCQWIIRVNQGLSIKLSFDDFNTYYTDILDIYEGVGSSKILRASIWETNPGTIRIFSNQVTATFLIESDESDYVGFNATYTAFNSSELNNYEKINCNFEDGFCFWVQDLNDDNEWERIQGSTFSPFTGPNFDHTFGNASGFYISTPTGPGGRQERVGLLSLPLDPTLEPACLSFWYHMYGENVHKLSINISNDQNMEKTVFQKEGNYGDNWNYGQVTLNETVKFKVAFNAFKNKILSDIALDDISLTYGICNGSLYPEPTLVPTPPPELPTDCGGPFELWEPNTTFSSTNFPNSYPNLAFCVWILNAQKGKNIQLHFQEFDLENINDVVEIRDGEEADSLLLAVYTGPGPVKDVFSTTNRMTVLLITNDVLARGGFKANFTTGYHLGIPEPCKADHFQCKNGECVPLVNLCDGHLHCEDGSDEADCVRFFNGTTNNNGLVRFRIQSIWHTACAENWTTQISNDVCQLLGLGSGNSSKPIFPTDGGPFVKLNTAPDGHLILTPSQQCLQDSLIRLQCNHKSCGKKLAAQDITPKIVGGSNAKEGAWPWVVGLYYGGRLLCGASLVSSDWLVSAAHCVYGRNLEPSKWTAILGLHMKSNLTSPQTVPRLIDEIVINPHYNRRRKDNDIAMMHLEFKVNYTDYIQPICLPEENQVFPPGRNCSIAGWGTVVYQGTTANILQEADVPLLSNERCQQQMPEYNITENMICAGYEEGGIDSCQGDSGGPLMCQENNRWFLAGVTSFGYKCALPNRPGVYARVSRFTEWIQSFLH

Ki	Compound
0.57 nM	CN(CCC(=O)O)c1nc2ccc(C(=O)Oc3ccc(C(=N)N)cc3F)cc2s1 [Example 77, 3-((6-((4-Carbamimidoyl-2-fluorophenoxy)carbonyl)benzo[d]thiazol-2-yl)(methyl) Amino)propanoic Acid]
23 nM	N=C(N)c1ccc(OC(=O)c2ccc3nc(N4CCC(C(=O)Nc5ccccc5)CC4)sc3c2)cc1 [Example 80, 4-Carbamimidoylphenyl 2-(4-(phenylcarbamoyl)piperidin-1-yl)benzo[d]thiazole-6-carboxylate]
1.9 nM	N=C(N)c1ccc(OC(=O)c2ccc3nc(N4CCC(NC(=O)c5ccccc5)CC4)sc3c2)c(F)c1 [Example 82, 4-Carbamimidoyl-2-fluorophenyl 2-(4-benzoamidopiperidin-1-yl)benzo[d]thiazole-6-carboxylate]
9.7 nM	N=C(N)c1ccc(OC(=O)c2ccc3nc(N4CCC(NC(=O)c5ccccc5)CC4)sc3c2)cc1 [Example 83, 4-Carbamimidoylphenyl 2-(4-benzoamidopiperidin-1-yl)benzo[d]thiazole-6-carboxylate]
2.2 nM	CCN(CCC(=O)OC)c1nc2ccc(C(=O)Oc3ccc(C(=N)N)cc3F)cc2s1 [Example 84, 4-Carbamimidoyl-2-fluorophenyl 2-(ethyl(3-methoxy-3-oxopropyl)amino)benzo[d]thiazole-6-carboxylate]
0.55 nM	CCN(CCC(=O)O)c1nc2ccc(C(=O)Oc3ccc(C(=N)N)cc3F)cc2s1 [Example 85, 3-((6-((4-Carbamimidoyl-2-fluorophenoxy)carbonyl)benzo[d]thiazol-2-yl)(ethyl)amino)propanoic Acid]
10 nM	CN(CC(C)(C)C(=O)O)c1nc2ccc(C(=O)Oc3ccc(C(=N)N)cc3)cc2s1 [Example 86, 3-((6-((4-Carbamimidoylphenoxy)carbonyl)benzo[d]thiazol-2-yl)(methyl)amino)-2,2-dimethylpropanoic Acid]
4 nM	CCn1/c(=N/CC(C)(C)C(=O)OC)sc2cc(C(=O)Oc3ccc(C(=N)N)cc3F)ccc21 [Example 87, 4-Carbamimidoyl-2-fluorophenyl (Z)-3-ethyl-2-((3-methoxy-2,2-dimethyl-3-oxopropyl)imino)-2,3-dihydrobenzo[d]thiazole-6-carboxylate]
0.16 nM	CCn1/c(=N/CC(C)(C)C(=O)O)sc2cc(C(=O)Oc3ccc(C(=N)N)cc3F)ccc21 [Example 88, (Z)-3-((6-((4-Carbamimidoyl-2-fluorophenoxy)carbonyl)-3-ethylbenzo[d]thiazole-2(3H)-ylidine)amino)-2,2-dimethylpropanoic Acid]
